Assay results as given in patent publication US20080161607A1 (Teva Pharmaceuticals USA, Inc., priority 2002, published 2008).

Assays:
[1] = Storage stability of bulk sertraline hydrochloride Form II; polymorph content by XRPD; conditions: for Polymorph Content of bulk sertraline hydrochloride, content of Form I (in parentheses) / Polymorph Content of bulk sertraline hydrochloride, Polymorphic Form detected (I or II): 40° C., 75% RH; for Polymorph Content of bulk sertraline hydrochloride, content of Form I (in parentheses): Form I relative to all sertraline hydrochloride
From the text: X-Ray powder diffraction data was obtained by using a SCINTAG powder X-Ray diffractometer model X′TRA equipped with a solid state detector. Copper radiation of 1.5418 Å was used. The diffractometer was equipped with a round aluminum sample holder with round zero background quartz plate having a cavity of 25(diameter)*0.5(depth) mm.

[2] = granulation in isopropyl alcohol, ethyl acetate, hexane at 40 E to 60 E C; disclosed in U.S. Pat. No. 5,248,699; cited from earlier work

CN[C@H]1CC[C@@H](c2ccc(Cl)c(Cl)c2)c2ccccc21.Cl [Example 1, (1S-cis)-4-(3,4 dichlorophenyl)-1,2,3,4-tetrahydro-N-methyl-1-naphthalenamine hydrochloride]
Polymorph Content of bulk sertraline hydrochloride, content of Form I (in parentheses) ([1]; 1 month): < 1% | Polymorph Content of bulk sertraline hydrochloride, Polymorphic Form detected (I or II) ([1]; 1 month, hydrochloride): II > I | Polymorph Content of bulk sertraline hydrochloride, content of Form I (in parentheses) ([1]; 2 months): 2% | Polymorph Content of bulk sertraline hydrochloride, Polymorphic Form detected (I or II) ([1]; 2 months, hydrochloride): II > I | Polymorph Content of bulk sertraline hydrochloride, Polymorphic Form detected (I or II) ([1]; 3 months): II > I | Polymorph Content of bulk sertraline hydrochloride, content of Form I (in parentheses) ([1]; 3 months): 2% | Polymorph Content of bulk sertraline hydrochloride, Polymorphic Form detected (I or II) ([1]; 4 months): II > I | Polymorph Content of bulk sertraline hydrochloride, content of Form I (in parentheses) ([1]; 4 months): 4% | Polymorph Content of bulk sertraline hydrochloride, content of Form I (in parentheses) ([1]; t = 0): < 1% | Polymorph Content of bulk sertraline hydrochloride, Polymorphic Form detected (I or II) ([1]; t = 0, hydrochloride): II > I

CN[C@H]1CC[C@@H](c2ccc(Cl)c(Cl)c2)c2ccccc21.Cl [Form II, (1S-cis)-4-(3,4 dichlorophenyl)-1,2,3,4-tetrahydro-N-methyl-1-naphthalenamine hydrochloride]
result of granulation [2]: conversion to Form I

CN[C@H]1CC[C@@H](c2ccc(Cl)c(Cl)c2)c2ccccc21.Cl [sertraline hydrochloride]
stability during storage under stress conditions ([1]; Form II containing at least about 1% w/w Form I): not stable
